{"source": "patent US20260242373A1", "about": "“NBD1 MODULATORS AND METHODS OF USING THE SAME” (Sionna Therapeutics Inc., priority 2023, published 2026)", "data": [{"tested_on": "NBD1", "test": "Aggregation analysis of NBD1 thermal stability by differential static light scattering (DSLS)", "type": "binding, Human", "conditions": "100 μM compound; ΔTagg versus DMSO control", "experimental": "Purified recombinant NBD1 was produced using previously described methods (A. Schmidt, J. L. Mendoza, P. J. Thomas (2011) Biochemical and Biophysical Approaches to Probe CFTR Structure (365-376) M. D. Amaral, K. Kunzelmann (eds.), Cystic Fibrosis, Methods in Molecular Biology 741, Springer Science+Business Media). The effect of test compounds on thermal stability of NBD1 was evaluated by differential static light scattering (DSLS) using the Harbinger Stargazer-384 instrument (Epiphyte Three, Toronto, Canada). Test compounds were dissolved and diluted to desired concentrations in 100% DMSO. The compounds or DMSO controls (100 nL) were stamped into wells of a […] low volume optical plate (Corning Inc., Corning, NY) using the Echo 555 acoustic liquid handler (Labcyte Inc., San Jose, CA).\nNBD1 protein was diluted to 0.2 mg/ml in S200 buffer (50 mM Tris-HCl, 150 mM NaCl, 5 mM MgCl2, 2 mM ATP, 2 mM DTT, pH7.6) containing 1% glycerol. 10 uL of protein solution was aliquoted into the 384-well plate harboring the test compounds and 10 uL mineral oil was overlayed onto the protein solution, using the epMotion robotic liquid handler (Eppendorf North America, Hauppauge, NY). After placing into the Stargazer instrument, the plate was heated at 1° C. per minute to 70° C. Images were captured from 25° C. to 70° C. every 0.5° C. At the end of the experiment run, instrument software integrated image files and analyzed data automatically. A […] regression curve was generated for each well, representing the increase in light scattering over time. A temperature of aggregation (Tagg) was calculated based on the inflection point of the curve. To better compare data across experiments the average Tagg for DMSO control wells was calculated and subtracted from values for wells containing compounds to obtain a “ΔTagg” value. These ΔTagg values reflect stabilizing efficacy of the compounds.", "values": [{"smiles": "Cc1cc(Cc2nnc(-c3cccc(Oc4cc5cc[nH]c5cn4)c3)[nH]2)cs1", "note": "[Compound 9, 5-(3-(5-((5-methylthiophen-3-yl)methyl)-4H-1,2,4-triazol-3-yl)phenoxy)-1H-pyrrolo[2,3-c]pyridine]", "DSLS NBD1/3D Human Stability delta-T (° C.) @ 100 (μM)": "C (C: ≤4° C.)"}, {"smiles": "Cc1cnc(Cc2nnc(-c3cccc(Oc4ccc5[nH]ccc5c4)c3)[nH]2)s1", "note": "[Compound 16, 2-((5-(3-((1H-indol-5-yl)oxy)phenyl)-4H-1,2,4-triazol-3-yl)methyl)-5-methylthiazole]", "DSLS NBD1/3D Human Stability delta-T (° C.) @ 100 (μM)": "C (C: ≤4° C.)"}, {"smiles": "NC(=O)CCc1ncc(Cc2cnc(-c3cc(Oc4c(F)cc5[nH]ccc5c4F)ccc3F)[nH]2)s1", "note": "[Compound 3, 3-(5-((2-(5-((4,6-difluoro-1H-indol-5-yl)oxy)-2-fluorophenyl)-1H-imidazol-5-yl)methyl)thiazol-2-yl)propanamide]", "DSLS NBD1/3D Human Stability delta-T (° C.) @ 100 (μM)": "C (C: ≤4° C.)"}, {"smiles": "CCOc1cc(C(C)c2cccc(CCC(=O)O)c2F)nn1-c1cc(Oc2c(F)cc3[nH]ccc3c2F)ccc1F", "note": "(stereo not drawn) [Compound 49, 3-(3-(1-(1-(5-((4,6-Difluoro-1H-indol-5-yl)oxy)-2-fluorophenyl)-5-ethoxy-1H-pyrazol-3-yl)ethyl)-2-fluorophenyl)propanoic acid]", "DSLS NBD1/3D Human Stability delta-T (° C.) @ 100 (μM)": "B (B: 4-8° C.)"}, {"smiles": "CC(c1cccc(CCC(=O)O)c1F)c1nc(-c2cc(Oc3c(F)cc4[nH]ccc4c3F)ccc2F)n2c1CCCC2", "note": "(stereo not drawn) [Compound 47, 3-(3-(1-(3-(5-((4,6-difluoro-1H-indol-5-yl)oxy)-2-fluorophenyl)-5,6,7,8-tetrahydroimidazo[1,5-a]pyridin-1-yl)ethyl)-2-fluorophenyl)propanoic acid]", "DSLS NBD1/3D Human Stability delta-T (° C.) @ 100 (μM)": "C (C: ≤4° C.)"}, {"smiles": "O=C(O)CCn1ccc(Cc2cnc(-c3cc(Oc4c(F)cc5[nH]ccc5c4F)ccc3F)[nH]2)n1", "note": "[Compound 5, 3-(3-((2-(5-((4,6-difluoro-1H-indol-5-yl)oxy)-2-fluorophenyl)-1H-imidazol-5-yl)methyl)-1H-pyrazol-1-yl)propanoic acid]", "DSLS NBD1/3D Human Stability delta-T (° C.) @ 100 (μM)": "B (B: 4-8° C.)"}, {"smiles": "O[C@@H](Cc1cncs1)c1c[nH]c(-c2cccc(Oc3ccc4[nH]ccc4c3)c2)n1", "note": "(single isomer, unassigned) [Compound 24]", "DSLS NBD1/3D Human Stability delta-T (° C.) @ 100 (μM)": "C (C: ≤4° C.)"}, {"smiles": "Cc1ccc(C(O)c2c[nH]c(-c3cccc(Oc4ccc5[nH]ccc5c4)c3)n2)s1", "note": "(stereo not drawn) [Compound 20, (2-(3-((1H-indol-5-yl)oxy)phenyl)-1H-imidazol-4-yl)(5-methylthiophen-2-yl)methanol]", "DSLS NBD1/3D Human Stability delta-T (° C.) @ 100 (μM)": "B (B: 4-8° C.)"}, {"smiles": "Cn1cc(C(O)c2cnc(-c3cccc(Oc4ccc5[nH]ccc5n4)c3)[nH]2)cn1", "note": "(stereo not drawn) [Compound 32, (2-(3-((1H-pyrrolo[3,2-b]pyridin-5-yl)oxy)phenyl)-1H-imidazol-5-yl)(1-methyl-1H-pyrazol-4-yl)methanol]", "DSLS NBD1/3D Human Stability delta-T (° C.) @ 100 (μM)": "C (C: ≤4° C.)"}, {"smiles": "Cc1c(Oc2ccc(F)c(-c3nc(Cc4csc(CCC(=O)O)n4)c[nH]3)c2)c(F)cc2[nH]ccc12", "note": "[Compound 1, 3-(4-((2-(2-fluoro-5-((6-fluoro-4-methyl-1H-indol-5-yl)oxy)phenyl)-1H-imidazol-4-yl)methyl)thiazol-2-yl)propanoic acid]", "DSLS NBD1/3D Human Stability delta-T (° C.) @ 100 (μM)": "B (B: 4-8° C.)"}, {"smiles": "Cc1ncc(C(O)c2nnc(-c3cccc(Oc4ccc5[nH]cnc5c4)c3)[nH]2)s1", "note": "(stereo not drawn) [Compound 35, (5-(3-((1H-benzo[d]imidazol-5-yl)oxy)phenyl)-4H-1,2,4-triazol-3-yl)(2-methylthiazol-5-yl)methanol]", "DSLS NBD1/3D Human Stability delta-T (° C.) @ 100 (μM)": "C (C: ≤4° C.)"}, {"smiles": "O=C(O)CCc1cccc(Cc2cc(N3CCCCC3=O)n(-c3cc(Oc4c(F)cc5[nH]ccc5c4F)ccc3F)n2)c1", "note": "[Compound 57, 3-[3-[[1-[5-[(4,6-difluoro-1H-indol-5-yl)oxy]-2-fluoro-phenyl]-5-(2-oxo-1-piperidyl)pyrazol-3-yl]methyl]phenyl]propanoic acid]", "DSLS NBD1/3D Human Stability delta-T (° C.) @ 100 (μM)": "C (C: ≤4° C.)"}, {"smiles": "O=C(O)CCc1ncc(Cc2cnc(-c3cc(Oc4c(F)cc5[nH]ccc5c4F)ccc3F)[nH]2)s1", "note": "[Compound 2, 3-(5-((2-(5-((4,6-difluoro-1H-indol-5-yl)oxy)-2-fluorophenyl)-1H-imidazol-5-yl)methyl)thiazol-2-yl)propanoic acid]", "DSLS NBD1/3D Human Stability delta-T (° C.) @ 100 (μM)": "B (B: 4-8° C.)"}, {"smiles": "OC(c1c[nH]c(-c2cccc(Oc3ccc4[nH]ccc4c3)c2)n1)c1nccs1", "note": "(stereo not drawn) [Compound 21, (2-(3-((1H-indol-5-yl)oxy)phenyl)-1H-imidazol-4-yl)(thiazol-2-yl)methanol]", "DSLS NBD1/3D Human Stability delta-T (° C.) @ 100 (μM)": "B (B: 4-8° C.)"}, {"smiles": "Cc1ncc(C(O)c2nnc(-c3cccc(Oc4ccc5[nH]ccc5c4C(N)=O)c3)[nH]2)s1", "note": "(stereo not drawn) [Compound 39, 5-(3-(5-(hydroxy(2-methylthiazol-5-yl)methyl)-4H-1,2,4-triazol-3-yl)phenoxy)-1H-indole-4-carboxamide]", "DSLS NBD1/3D Human Stability delta-T (° C.) @ 100 (μM)": "B (B: 4-8° C.)"}, {"smiles": "CSc1cc(C(C)c2cccc(CCC(=O)O)c2F)nn1-c1cc(Oc2c(F)cc3[nH]ccc3c2F)ccc1F", "note": "(stereo not drawn) [Compound 52, 3-(3-(1-(1-(5-((4,6-difluoro-1H-indol-5-yl)oxy)-2-fluorophenyl)-5-(methylthio)-1H-pyrazol-3-yl)ethyl)-2-fluorophenyl)propanoic acid]", "DSLS NBD1/3D Human Stability delta-T (° C.) @ 100 (μM)": "C (C: ≤4° C.)"}, {"smiles": "c1cc(Oc2ccc3[nH]ccc3c2)cc(-c2nnc(Cc3cncs3)[nH]2)c1", "note": "[Compound 14, 5-((5-(3-((1H-indol-5-yl)oxy)phenyl)-4H-1,2,4-triazol-3-yl)methyl)thiazole]", "DSLS NBD1/3D Human Stability delta-T (° C.) @ 100 (μM)": "C (C: ≤4° C.)"}, {"smiles": "COc1cc(C(C)c2cccc(CCC(=O)O)c2F)nn1-c1cc(Oc2c(F)cc3[nH]ccc3c2F)ccc1F", "note": "(stereo not drawn) [Compound 50, 3-(3-(1-(1-(5-((4,6-difluoro-1H-indol-5-yl)oxy)-2-fluorophenyl)-5-methoxy-1H-pyrazol-3-yl)ethyl)-2-fluorophenyl)propanoic acid]", "DSLS NBD1/3D Human Stability delta-T (° C.) @ 100 (μM)": "B (B: 4-8° C.)"}, {"smiles": "Cn1cc(Cc2cnc(-c3cccc(Oc4ccc5[nH]ccc5c4)c3)[nH]2)cn1", "note": "[Compound 28, 5-(3-(5-((1-methyl-1H-pyrazol-4-yl)methyl)-1H-imidazol-2-yl)phenoxy)-1H-indole]", "DSLS NBD1/3D Human Stability delta-T (° C.) @ 100 (μM)": "C (C: ≤4° C.)"}, {"smiles": "CC(c1noc(-c2cc(Oc3c(F)cc4[nH]ccc4c3F)ccc2F)n1)c1cccc(CCC(=O)O)c1F", "note": "(stereo not drawn) [Compound 53, 3-(3-(1-(5-(5-((4,6-difluoro-1H-indol-5-yl)oxy)-2-fluorophenyl)-1,2,4-oxadiazol-3-yl)ethyl)-2-fluorophenyl)propanoic acid]", "DSLS NBD1/3D Human Stability delta-T (° C.) @ 100 (μM)": "B (B: 4-8° C.)"}, {"smiles": "O=C(O)CCc1cccc(Cc2cc(NCCO)n(-c3cc(Oc4c(F)cc5[nH]ccc5c4F)ccc3F)n2)c1", "note": "[Compound 56, 3-(3-((1-(5-((4,6-difluoro-1H-indol-5-yl)oxy)-2-fluorophenyl)-5-((2-hydroxyethyl)amino)-1H-pyrazol-3-yl)methyl)phenyl) propanoic acid]", "DSLS NBD1/3D Human Stability delta-T (° C.) @ 100 (μM)": "B (B: 4-8° C.)"}, {"smiles": "O=C(O)CCc1cccc(Cc2cc(N3CCCC3=O)n(-c3cc(Oc4c(F)cc5[nH]ccc5c4F)ccc3F)n2)c1", "note": "[Compound 58, 3-[3-[[1-[5-[(4,6-difluoro-1H-indol-5-yl)oxy]-2-fluoro-phenyl]-5-(2-oxopyrrolidin-1-yl)pyrazol-3-yl]methyl]phenyl]propanoic acid]", "DSLS NBD1/3D Human Stability delta-T (° C.) @ 100 (μM)": "C (C: ≤4° C.)"}, {"smiles": "CC(c1cccc(CC(=O)O)c1F)n1cc(F)c(-c2ccc(F)c(Oc3c(F)cc4[nH]ccc4c3S(C)(=O)=O)c2)n1", "note": "(stereo not drawn) [Compound 55, 2-(2-fluoro-3-(1-(4-fluoro-3-(4-fluoro-3-((6-fluoro-4-(methylsulfonyl)-1H-indol-5-yl)oxy)phenyl)-1H-pyrazol-1-yl)ethyl)phenyl)acetic acid]", "DSLS NBD1/3D Human Stability delta-T (° C.) @ 100 (μM)": "A (A: T ≥8° C.)"}, {"smiles": "OC(Cc1nccs1)c1cnc(-c2cccc(Oc3ccc4[nH]cnc4c3)c2)[nH]1", "note": "(stereo not drawn) [Compound 34, 1-(2-(3-((1H-benzo[d]imidazol-5-yl)oxy)phenyl)-1H-imidazol-5-yl)-2-(thiazol-2-yl)ethan-1-ol]", "DSLS NBD1/3D Human Stability delta-T (° C.) @ 100 (μM)": "C (C: ≤4° C.)"}, {"smiles": "Cc1ccc(Cc2nnc(-c3cccc(Oc4cc5cc[nH]c5cn4)c3)[nH]2)s1", "note": "[Compound 8, 5-(3-(5-((5-methylthiophen-2-yl)methyl)-4H-1,2,4-triazol-3-yl)phenoxy)-1H-pyrrolo[2,3-c]pyridine]", "DSLS NBD1/3D Human Stability delta-T (° C.) @ 100 (μM)": "C (C: ≤4° C.)"}, {"smiles": "OCc1c(Oc2cccc(-c3nnc(C(O)c4cncs4)[nH]3)c2)ccc2[nH]ccc12", "note": "(stereo not drawn) [Compound 40, (5-(3-((4-(hydroxymethyl)-1H-indol-5-yl)oxy)phenyl)-4H-1,2,4-triazol-3-yl)(thiazol-5-yl)methanol]", "DSLS NBD1/3D Human Stability delta-T (° C.) @ 100 (μM)": "B (B: 4-8° C.)"}, {"smiles": "c1cc(Oc2ccc3[nH]ccc3c2)cc(-c2nnc(Cc3nccs3)[nH]2)c1", "note": "[Compound 12, 2-((5-(3-((1H-indol-5-yl)oxy)phenyl)-4H-1,2,4-triazol-3-yl)methyl)thiazole]", "DSLS NBD1/3D Human Stability delta-T (° C.) @ 100 (μM)": "C (C: ≤4° C.)"}]}]}
